Our source for the GI50 and TGI values is PubChem BioAssay (NCI).

A word on the GI50: it is the concentration at which growth is held to half of that of the control. Broadly, the TGI is the concentration giving total growth inhibition. The low end stands for greater sensitivity of the cells, the high end for lower sensitivity of the cells.

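Exposure lasted 48 hours, with cells grown in 96-well plates and compounds tested at five concentrations. GI50 is the concentration that inhibits growth by half. Definition used: TGI = concentration required for complete inhibition of growth.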

Test systems include SK-MEL-2 melanoma; KM12 colon; A549 NSCLC; HCT-15 colon; SW-620 colon; MOLT-4 leukemia; SN12C renal; DU-145 prostate; SK-OV-3 ovarian; HT29 colon.
Test in all cases: DTP human tumour cell line panel, 48 h

For `CCC(Sc1nnc2c3ccccc3n(CC)c2n1)C(=O)Nc1ccccc1OC` (centres undefined), the GI50 with SK-MEL-2 melanoma was > 100 µM; with KM12 colon, 91.3 µM; in the assay on A549 NSCLC it was 6.4 µM; with HCT-15 colon, 66.8 µM; in the assay on SW-620 colon, > 100 µM; in the assay on MOLT-4 leukemia, 35 µM. Besides, the GI50 in the assay with SN12C renal is 3.47 µM; in the assay with DU-145 prostate, > 100 µM; in the assay on SK-OV-3 ovarian, > 100 µM; in the assay on HT29 colon, > 100 µM. The TGI with SK-MEL-2 melanoma, in the assay on KM12 colon, in the assay on A549 NSCLC, with HCT-15 colon, with SW-620 colon and in the assay with MOLT-4 leukemia was > 100 µM each time. The concentration for total growth inhibition (TGI) in the assay on SN12C renal, in the assay with DU-145 prostate, with SK-OV-3 ovarian and with HT29 colon was > 100 µM each time.

Take `CCCCCCCCCCCCCCCC(=O)OCC(O)C1OC(=O)C(O)=C1O` (centres undefined): the concentration for total growth inhibition (TGI) in the assay with SK-MEL-2 melanoma is > 100 µM; in the assay on KM12 colon, 53 µM; in the assay with A549 NSCLC, 42.9 µM; with HCT-15 colon it was > 100 µM; in the assay on SW-620 colon, > 100 µM; in the assay with MOLT-4 leukemia, > 100 µM. Moreover, the concentration for total growth inhibition (TGI) in the assay with SN12C renal was 96.9 µM; in the assay on DU-145 prostate it was > 100 µM; with SK-OV-3 ovarian it was > 100 µM; in the assay on HT29 colon, 38.8 µM.

For the compound `CC(=O)OC1COC(S[As](C)C)C(OC(C)=O)C1OC(C)=O` (centres undefined), the GI50 with SK-MEL-2 melanoma is 0.429 µM; in the assay on KM12 colon, 1.15 µM; in the assay on A549 NSCLC it was 3.51 µM; with HCT-15 colon, 0.191 µM; in the assay on SW-620 colon, 0.341 µM; with MOLT-4 leukemia it was 0.0152 µM. Moreover, the GI50 is 0.48 µM in the assay on SN12C renal, 0.0701 µM with DU-145 prostate, 1.81 µM in the assay with SK-OV-3 ovarian and 0.558 µM with HT29 colon. Moreover, the TGI is 1.99 µM in the assay with SK-MEL-2 melanoma; 9.24 µM with KM12 colon; > 32.4 µM with A549 NSCLC; 1.36 µM in the assay on HCT-15 colon; 1.69 µM in the assay with SW-620 colon; 0.0672 µM in the assay with MOLT-4 leukemia. Besides, the concentration for total growth inhibition (TGI) in the assay with SN12C renal was 2.74 µM; in the assay on DU-145 prostate, 0.902 µM; in the assay with SK-OV-3 ovarian it was 17.3 µM; with HT29 colon, > 100 µM.

Take `COc1ccc(C(O)CNC(=O)c2ccccc2)cc1` (centres undefined): the total growth inhibition concentration (TGI) in the assay with SK-MEL-2 melanoma, in the assay on KM12 colon, in the assay with A549 NSCLC, in the assay with HCT-15 colon, in the assay on SW-620 colon and in the assay on MOLT-4 leukemia was > 100 µM throughout. Moreover, the TGI in the assay with SN12C renal, in the assay on DU-145 prostate, in the assay with SK-OV-3 ovarian and in the assay with HT29 colon was > 100 µM each time.

Consider `CC(ONC(=O)c1cc(C(F)(F)F)cc(C(F)(F)F)c1)C(=O)Nc1ccc(Cl)cc1` (centres undefined), for which the GI50 was 3.65 µM in the assay with SK-MEL-2 melanoma; 5 µM with KM12 colon; 4.68 µM with A549 NSCLC; 4.98 µM in the assay with HCT-15 colon; 5.64 µM with SW-620 colon; 2.65 µM in the assay with MOLT-4 leukemia. The GI50 in the assay with SN12C renal is 5.44 µM; with DU-145 prostate it was 11.5 µM; in the assay with SK-OV-3 ovarian it was 12.9 µM; in the assay with HT29 colon, 5.92 µM. Also, the total growth inhibition concentration (TGI) with SK-MEL-2 melanoma was 15.2 µM; with KM12 colon, 29.4 µM; in the assay with A549 NSCLC it was > 41.3 µM; in the assay with HCT-15 colon, 20 µM; in the assay with SW-620 colon, 23.7 µM; with MOLT-4 leukemia, 22.3 µM. Further, the TGI in the assay with SN12C renal was > 100 µM; in the assay on DU-145 prostate, > 100 µM; in the assay with SK-OV-3 ovarian, > 85.8 µM; in the assay with HT29 colon, 27.2 µM.

For the compound `COc1cc(CSc2nc3ccc(C)cc3c(=O)n2Cc2ccccc2)cc(OC)c1OC`, the GI50 in the assay with SK-MEL-2 melanoma is 4.05 µM; in the assay with KM12 colon, 1.08 µM; with A549 NSCLC it was 1.72 µM; in the assay on HCT-15 colon, 0.773 µM; in the assay with SW-620 colon it was 1.56 µM; in the assay with MOLT-4 leukemia, 4.57 µM. Also, the GI50 in the assay on SN12C renal is 6.53 µM; with DU-145 prostate, 3.14 µM; in the assay with SK-OV-3 ovarian it was 2.86 µM; with HT29 colon, 0.595 µM. The TGI in the assay on SK-MEL-2 melanoma is 43.1 µM; in the assay with KM12 colon it was > 100 µM; in the assay on A549 NSCLC it was > 100 µM; in the assay on HCT-15 colon it was > 100 µM; with SW-620 colon, > 100 µM; in the assay with MOLT-4 leukemia it was > 100 µM. The TGI with SN12C renal is > 100 µM; with DU-145 prostate it was 20.4 µM; in the assay with SK-OV-3 ovarian, 17.8 µM; with HT29 colon, 80.8 µM.

`C#C[C@]1(O)CC[C@H]2[C@@H]3CC=C4c5sc(N=C(N)N)nc5CC[C@]4(C)[C@H]3CC[C@@]21C`: the GI50 is 0.787 µM with SK-MEL-2 melanoma; 1.1 µM in the assay with KM12 colon; 0.865 µM in the assay on A549 NSCLC; 0.525 µM in the assay with HCT-15 colon; 0.541 µM with SW-620 colon; 0.297 µM in the assay with MOLT-4 leukemia. In addition, the GI50 with SN12C renal is 1.31 µM; in the assay on DU-145 prostate, 1.19 µM; in the assay on SK-OV-3 ovarian, 1.05 µM; in the assay on HT29 colon, 0.361 µM. For the same compound, the TGI in the assay on SK-MEL-2 melanoma came to 2.36 µM; in the assay with KM12 colon, 2.55 µM; with A549 NSCLC it was 2.72 µM; in the assay with HCT-15 colon, 1.98 µM; in the assay with SW-620 colon, 1.96 µM; in the assay with MOLT-4 leukemia it was 1.01 µM. In addition, the TGI stood at 2.72 µM in the assay on SN12C renal, 2.67 µM in the assay with DU-145 prostate, 2.33 µM in the assay with SK-OV-3 ovarian and 1.69 µM in the assay with HT29 colon.

For `CC(C)=CCc1c(O)cc(/C=C/c2cc(O)c3c(c2)C[C@@H]2C(C)(C)[C@H](O)[C@H](O)C[C@@]2(C)O3)cc1O`, the concentration for 50% growth inhibition (GI50) with SK-MEL-2 melanoma was 0.0444 µM; in the assay with KM12 colon, 0.59 µM; in the assay on A549 NSCLC it was 0.249 µM; in the assay on HCT-15 colon, 1.28 µM; in the assay with SW-620 colon it was 0.11 µM; in the assay on MOLT-4 leukemia, < 0.001 µM. Moreover, the GI50 in the assay on SN12C renal is 2.81 µM; in the assay on DU-145 prostate, 1.96 µM; in the assay with SK-OV-3 ovarian, 0.264 µM; in the assay on HT29 colon, 0.373 µM. Further, the total growth inhibition concentration (TGI) in the assay with KM12 colon is 4.11 µM; in the assay on A549 NSCLC it was > 10 µM; in the assay on HCT-15 colon, > 10 µM; in the assay with SW-620 colon, 1.88 µM; in the assay with MOLT-4 leukemia, 0.0148 µM; with SN12C renal it was > 10 µM. Besides, the TGI was > 10 µM in the assay with DU-145 prostate, 3.73 µM with SK-OV-3 ovarian and 3.54 µM in the assay on HT29 colon.
